Type in all cases: cell-based
The subject of one assay is S. Aureus UC ® 9213. In words: In vitro minimum inhibitory concentration (MIC) by agar dilution, gram-positive bacteria (Table 1). The note with it: Staphylococcus aureus, UC9213. From the text:
(§1) The oxazolidinone antibacterial agents of this invention have useful activity against a variety of microorganisms. The in vitro activity of compounds of this invention can be assessed by standard testing procedures such as the determination of minimum inhibitory concentration (MIC) by agar dilution as described in "Methods for Dilution Antimicrobial Susceptibility Tests for Bacteria That Grow Aerobically" (MFT) published January 1983 by the National Committee for Clinical Laboratory Standards, 771 East Lancaster Avenue, Villanova, Pa. 19084, USA. The activity of selected compounds of this invention against Staphylococcus aureus and Streptococcus pneumoniae are shown in Table 1.

A further assay relates to S. pneumoniae UC ® 9912. The description is as above. As to conditions: Streptococcus pneumoniae, UC9912.
From the text: as §1

The next assay deals with HI 30063. In words: MIC for a gram negative bacterial strain (Table 2). The note with it: gram negative bacterial strain HI 30063.

≈ marks a conversion by molar mass, not a printed value.

As usually defined, the MIC is the least concentration at which growth counts as inhibited. A low value points to inhibition by little substance.

For `CC(=O)NC[C@H]1CN(c2ccc(-c3nnc(CCO)s3)c(F)c2)C(=O)O1` [Example 26, (S)-N-[[3-[3-Fluoro-4-[5-(2-hydroxyethyl)-1,3,4-thiadiazol-2-yl]phenyl]-2-oxo-5-oxazolidinyl]methyl]acetamide], the figures for the minimal inhibitory concentration (MIC) against S. Aureus UC ® 9213, against S. pneumoniae UC ® 9912 and against HI 30063 were 2 µg/mL (≈ 5.26 µM), less than 0.125 µg/mL and 2 µg/mL (≈ 5.26 µM), respectively.

As to `CC(=O)NC[C@H]1CN(c2ccc(-c3n[nH]c(=O)s3)c(F)c2)C(=O)O1` [Example 29, (S)-N-[[3-[4-(4,5-Dihydro-5-oxo-1,3,4-thiadiazol-2-yl)-3-fluorophenyl]-2-oxo-5-oxazolidinyl]methyl]acetamide], the MIC is 1 µg/mL (≈ 2.84 µM) with S. Aureus UC ® 9213, 0.25 µg/mL (≈ 0.71 µM) against S. pneumoniae UC ® 9912 and 4 µg/mL (≈ 11.4 µM) with HI 30063.

`CSc1nnc(-c2ccc(N3C[C@H](CNC(C)=O)OC3=O)cc2F)s1` [Example 31, (S)-N-[[3-[3-Fluoro-4-[5-(methylthio)-1,3,4-thiadiazol-2-yl]phenyl]-2-oxo-5-oxazolidinyl]methyl]acetamide]: the minimum inhibitory concentration (MIC) is 0.5 µg/mL (≈ 1.31 µM) in the assay on S. Aureus UC ® 9213, less than 0.125 µg/mL in the assay with S. pneumoniae UC ® 9912 and 4 µg/mL (≈ 10.5 µM) in the assay with HI 30063.

Take `CCC(=O)NC[C@H]1CN(c2ccc(-c3nnc(C)s3)c(F)c2)C(=O)O1` [Example 32, (S)-N-[[3-[3-Fluoro-4-(5-methyl-1,3,4-thiadiazol-2-yl)phenyl]-2-oxo-5-oxazolidinyl]methyl]propanamide]: the minimum inhibitory concentration (MIC) in the assay on S. Aureus UC ® 9213 is 1 µg/mL (≈ 2.74 µM); against S. pneumoniae UC ® 9912, less than 0.125 µg/mL; with HI 30063, 4 µg/mL (≈ 11 µM).

Consider `CC(=O)NC[C@H]1CN(c2ccc(-c3nnc([S+](C)[O-])s3)c(F)c2)C(=O)O1` (stereo partly drawn) [Example 47, (5S)-N-[[3-[3-Fluoro-4-[5-(methylsulfinyl)-1,3,4-thiadiazol-2-yl]phenyl]-2-oxo-5-oxazolidinyl]methyl]acetamide], for which the MIC in the assay on S. Aureus UC ® 9213 was 2 µg/mL (≈ 5.02 µM); in the assay on S. pneumoniae UC ® 9912 it was 0.25 µg/mL (≈ 0.627 µM); against HI 30063, 4 µg/mL (≈ 10 µM).

Regarding `CC(=O)NC[C@H]1CN(c2ccc(-c3nnc(CCCO)s3)c(F)c2)C(=O)O1` [Example 50, (S)-N-[[3-[3-Fluoro-4-[5-(3-hydroxypropyl)-1,3,4-thiadiazol-2-yl]phenyl]-2-oxo-5-oxazolidinyl]methyl]acetamide], the minimal inhibitory concentration (MIC) in the assay with S. Aureus UC ® 9213 was 2 µg/mL (≈ 5.07 µM); with S. pneumoniae UC ® 9912, 0.25 µg/mL (≈ 0.634 µM); against HI 30063, 4 µg/mL (≈ 10.1 µM).

Regarding `CC(=O)NC[C@H]1CN(c2ccc(-c3nnc([C@H](C)O)s3)c(F)c2)C(=O)O1` [Example 51, [S-(R*,R*)]-N-[[3-[3-Fluoro-4-[5-(1-hydroxyethyl)-1,3,4-thiadiazol-2-yl]phenyl]-2-oxo-5-oxazolidinyl]methyl]acetamide], the MIC worked out at 2 µg/mL (≈ 5.26 µM) in the assay with S. Aureus UC ® 9213, 0.25 µg/mL (≈ 0.657 µM) against S. pneumoniae UC ® 9912 and 4 µg/mL (≈ 10.5 µM) against HI 30063.

Turning to `CC(=O)NC[C@H]1CN(c2ccc(-c3nnc([C@@H](C)O)s3)c(F)c2)C(=O)O1` [Example 52, [S-(R*,S*)]-N-[[3-[3-Fluoro-4-[5-(1-hydroxyethyl)-1,3,4-thiadiazol-2-yl]phenyl]-2-oxo-5-oxazolidinyl]methyl]acetamide], the figures for the minimum inhibitory concentration (MIC) in the assay with S. Aureus UC ® 9213, with S. pneumoniae UC ® 9912 and with HI 30063 were 2 µg/mL (≈ 5.26 µM), 0.25 µg/mL (≈ 0.657 µM) and 4 µg/mL (≈ 10.5 µM), respectively.

In the case of `CC(=O)NC[C@H]1CN(c2ccc(-c3nnc(CC[N+](=O)[O-])s3)c(F)c2)C(=O)O1` [Example 53, (S)-N-[[3-[3-Fluoro-4-[5-(2-nitroethyl)-1,3,4-thiadiazol-2-yl]phenyl]-2-oxo-5-oxazolidinyl]methyl]acetamide], the MIC against S. Aureus UC ® 9213 amounted to 1 µg/mL (≈ 2.44 µM); against S. pneumoniae UC ® 9912, 0.25 µg/mL (≈ 0.611 µM); against HI 30063, 4 µg/mL (≈ 9.77 µM).

Take `CC(=O)NC[C@H]1CN(c2ccc(-c3nnc(CCC[N+](=O)[O-])s3)c(F)c2)C(=O)O1` [Example 54, (S)-N-[[3-[3-Fluoro-4-[5-(3-nitropropyl)-1,3,4-thiadiazol-2-yl]phenyl]-2-oxo-5-oxazolidinyl]methyl]acetamide]: the MIC against S. Aureus UC ® 9213 was 2 µg/mL (≈ 4.72 µM); in the assay with S. pneumoniae UC ® 9912, 0.25 µg/mL (≈ 0.59 µM); with HI 30063 it was 4 µg/mL (≈ 9.45 µM).

Consider `CC(=O)NC[C@H]1CN(c2ccc(-c3nnc([C@H](C)N)s3)c(F)c2)C(=O)O1` [Example 55, [S-(R*,R*)]-N-[[3-[4-[5-(1-Aminoethyl)-1,3,4-thiadiazol-2-yl]-3-fluorophenyl]-2-oxo-5-oxazolidinyl]methyl]acetamide], for which the minimum inhibitory concentration (MIC) was 8 µg/mL (≈ 21.1 µM) with S. Aureus UC ® 9213, less than 0.125 µg/mL against S. pneumoniae UC ® 9912 and 4 µg/mL (≈ 10.5 µM) against HI 30063.

Take `CC(=O)NC[C@H]1CN(c2ccc(-c3nnc([C@@H](C)N)s3)c(F)c2)C(=O)O1` [Example 56, [S-(R*,S*)]-N-[[3-[4-[5-(1-Aminoethyl)-1,3,4-thiadiazol-2-yl]-3-fluorophenyl]-2-oxo-5-oxazolidinyl]methyl]acetamide]: the minimal inhibitory concentration (MIC) with S. Aureus UC ® 9213 was 4 µg/mL (≈ 10.5 µM); against S. pneumoniae UC ® 9912, less than 0.125 µg/mL; in the assay with HI 30063, 4 µg/mL (≈ 10.5 µM).

In the case of `CC(=O)NC[C@H]1CN(c2ccc(-c3nnc(CCCC#N)s3)c(F)c2)C(=O)O1` [Example 61, (S)-N-[[3-[4-[5-(3-Cyanopropyl)-1,3,4-thiadiazol-2-yl]-3-fluorophenyl]-2-oxo-5-oxazolidinyl]methyl]acetamide], the minimum inhibitory concentration (MIC) in the assay with S. Aureus UC ® 9213 is 1 µg/mL (≈ 2.48 µM); against S. pneumoniae UC ® 9912, less than 0.125 µg/mL; with HI 30063, 4 µg/mL (≈ 9.91 µM).

Consider `CC(=O)NC[C@H]1CN(c2ccc(-c3nnc(CCC(C)=NO)s3)c(F)c2)C(=O)O1` [Example 63, (S)-N-[[3-[3-Fluoro-4-[5-[3-(hydroxyimino)butyl]-1,3,4-thiadiazol-2-yl]phenyl]-2-oxo-5-oxazolidinyl]methyl]acetamide], for which the MIC against S. Aureus UC ® 9213 is 2 µg/mL (≈ 4.75 µM); against S. pneumoniae UC ® 9912, less than 0.125 µg/mL; with HI 30063, 4 µg/mL (≈ 9.49 µM).

In the case of `CC(=O)NC[C@H]1CN(c2ccc(-c3nnc(CC=NO)s3)c(F)c2)C(=O)O1` [Example 64, (S)-N-[[3-[3-Fluoro-4-[5-[2-(hydroxyimino)ethyl]-1,3,4-thiadiazol-2-yl]phenyl]-2-oxo-5-oxazolidinyl]methyl]acetamide], the results for the MIC in the assay on S. Aureus UC ® 9213, against S. pneumoniae UC ® 9912 and in the assay with HI 30063 were 1 µg/mL (≈ 2.54 µM), less than 0.125 µg/mL and 2 µg/mL (≈ 5.08 µM), respectively.

Consider `CC(=O)NC[C@H]1CN(c2ccc(-c3nnc(CCS(C)(=O)=O)s3)c(F)c2)C(=O)O1` [Example 70, (S)-N-[[3-[3-Fluoro-4-[5-[2-(methylsulfonyl)ethyl]-1,3,4-thiadiazol-2-yl]phenyl]-2-oxo-5-oxazolidinyl]methyl]acetamide], for which the MIC against S. Aureus UC ® 9213 is 4 µg/mL (≈ 9.04 µM); with S. pneumoniae UC ® 9912, less than 0.5 µg/mL; in the assay with HI 30063 it was 4 µg/mL (≈ 9.04 µM).

Turning to `CCC(=O)NC[C@H]1CN(c2ccc(-c3nncs3)c(F)c2)C(=O)O1` [Example 71, (S)-N-[[3-[3-Fluoro-4-(1,3,4-thiadiazol-2-yl)phenyl]-2-oxo-5-oxazolidinyl]methyl]propanamide], the figures for the minimum inhibitory concentration (MIC) in the assay on S. Aureus UC ® 9213, against S. pneumoniae UC ® 9912 and in the assay on HI 30063 were 1 µg/mL (≈ 2.85 µM), 0.25 µg/mL (≈ 0.714 µM) and 4 µg/mL (≈ 11.4 µM), respectively.

For the molecule `CC(=S)NC[C@H]1CN(c2ccc(-c3nncs3)c(F)c2)C(=O)O1` [Example 74, (S)-N-[[3-[3-Fluoro-4-(1,3,4-thiadiazol-2-yl)phenyl]-2-oxo-5-oxazolidinyl]methyl]ethanethioamide], the MIC is 0.25 µg/mL (≈ 0.709 µM) in the assay with S. Aureus UC ® 9213, less than 0.125 µg/mL in the assay with S. pneumoniae UC ® 9912 and 1 µg/mL (≈ 2.84 µM) in the assay with HI 30063.

Consider `NC(=S)NC[C@H]1CN(c2ccc(-c3nncs3)c(F)c2)C(=O)O1` [Example 75, (S)-[[3-[3-Fluoro-4-(1,3,4-thiadiazol-2-yl)phenyl]-2-oxo-5-oxazolidinyl]methyl]thiourea], for which the figures for the minimal inhibitory concentration (MIC) with S. Aureus UC ® 9213, against S. pneumoniae UC ® 9912 and with HI 30063 were 0.25 µg/mL (≈ 0.707 µM), less than 0.125 µg/mL and 1 µg/mL (≈ 2.83 µM), respectively.

Regarding `CCC(=S)NC[C@H]1CN(c2ccc(-c3nncs3)c(F)c2)C(=O)O1` [Example 76, (S)-N-[[3-[3-Fluoro-4-(1,3,4-thiadiazol-2-yl)phenyl]-2-oxo-5-oxazolidinyl]methyl]propanethioamide], the minimal inhibitory concentration (MIC) with S. Aureus UC ® 9213 was 0.25 µg/mL (≈ 0.682 µM); in the assay on S. pneumoniae UC ® 9912, less than 0.125 µg/mL; in the assay with HI 30063 it was 1 µg/mL (≈ 2.73 µM).

Regarding `CC(=S)NC[C@H]1CN(c2ccc(-c3nnc(CN)s3)c(F)c2)C(=O)O1` [Example 77, N-[((5S)-3-{4-[5-(aminomethyl)-1,3,4-thiadiazol-2-yl]-3-fluorophenyl}-2-oxo-1,3-oxazolidin-5-yl)methyl]ethanethioamide], the MIC against S. Aureus UC ® 9213, in the assay on S. pneumoniae UC ® 9912 and against HI 30063 was less than 0.5 µg/mL in each case.

Take `CC(=O)OCC(=O)NCc1nnc(-c2ccc(N3C[C@H](CNC(C)=S)OC3=O)cc2F)s1` [Example 78, 2-({[5-(4-{(5S)-5-[(ethanethioylamino)methyl]-2-oxo-1,3-oxazolidin-3-yl}-2-fluorophenyl)-1,3,4-thiadiazol-2-yl]methyl}amino)-2-oxoethyl acetate]: the values for the MIC in the assay with S. Aureus UC ® 9213, in the assay on S. pneumoniae UC ® 9912 and in the assay on HI 30063 were 2 µg/mL, less than 0.5 µg/mL and 4 µg/mL, respectively.

Values taken from patent US5977373A, “Thiadiazolyl and oxadiazolyl phenyl oxazolidinone antibacterial agents” (Pharmacia & Upjohn Company, priority 1998, dated 1999).
